Assays:
CEM cells = assay: CEM cell assay, intrinsic toxicity of test compound without virus (MTT); format: cell-based; details: 7 days, concentration reducing cellular viability by 50%
Experimental: (§1) The effectiveness of the compounds tested in Part A was also determined in a CEM cell assay. The HIV inhibition assay method of acutely infected cells is an automated tetrazolium based colorimetric assay essentially that reported by Pauwles et al, J. Virol. Methods 20, 309–321 (1988). Assays were performed in 96-well tissue culture plates. CEM cells, a CD4 cell line, were grown in RPMI-1640 medium (Gibco) supplemented with a 10% fetal calf serum and were then treated with polybrene ([…]). An 80 μL volume of medium containing 1×10^4 cells was dispensed into each well of the tissue culture plate. To each well was added a 100 μL volume of test compound dissolved in tissue culture medium (or medium without test compound as a control) to achieve the desired final concentration and the cells were incubated at 37° C. for 1 hour. A frozen culture of HIV-1 was diluted in culture medium to a concentration of 5×10^4 TCID50 per mL (TCID50=the dose of virus that infects 50% of cells in tissue culture), and a 20 μL volume of the virus sample (containing 1000 TCID50 of virus) was added to wells containing test compound and to wells containing only medium (infected control cells). Several wells received culture medium without virus (uninfected control cells). Likewise, the intrinsic toxicity of the test compound was determined by adding medium without virus to several wells containing test compound. In summary, the tissue culture plates contained the following experiments:
In experiments 2 and 4, the final concentrations of test compounds were 1, 10, 100 and 500 μg/mL. Either azidothymidine (AZT) or dideoxyinosine (ddI) was included as a positive drug control. […] DMSO was added to all control wells at an appropriate concentration.
Following the addition of virus, cells were incubated at 37° C. in a humidified, 5% CO2 atmosphere for 7 days. Test compounds could be added on days 0, 2 and 5 if desired. On day 7, post-infection, the cells in each well were resuspended and a 100 μL sample of each cell suspension was removed for assay. A 20μL volume of a 5 mg/mL solution of 3-(4,5-dimethylthiazol-2-yl)-2,5-diphenyltetrazolium bromide (MTT) was added to each 100 μL cell suspension, and the cells were incubated for 4 hours at […] in a 5% CO2 environment. […] To each sample was added […] of 10% sodium dodecylsulfate in 0.01 N HCl to lyse the cells, and samples were incubated overnight. The absorbance at 590 nm was determined for each sample using a Molecular Devices microplate reader. Absorbance values for each set of wells is compared to assess viral control infection, uninfected control cell response as well as test compound by cytotoxicity and antiviral efficacy.
The calculated EC50 (effective concentration 50%, i.e., the concentration at which the inhibitor compound reduces cytopathicity by 50%) and TD50 (toxic dose 50%, i.e., the concentration at which the inhibitor compound reduces cellular viability by 50%) values for these compounds are also shown in Table 1.

HIV protease = target: T1, HIV protease (Human immunodeficiency virus type 1 group M subtype B, UniProt P04585); assay: Enzyme assay (HIV protease, fluorogenic substrate 2-aminobenzoyl-Ile-Nle-Phe(p-NO2)-Gln-ArgNH2); format: biochemical; details: HIV protease 12.3 nanomolar, substrate 80 μM, pH 6.4; read-out: Enzyme Inhibition (IC50)
T1 construct: HIV protease is diluted in the assay buffer to a final enzyme concentration of 12.3 nanomolar, based on a molecular weight of 10,780
Experimental: The calculated IC50 (inhibiting concentration 50%, i.e., the concentrations at which the inhibitor compound reduces enzyme activity by 50%) values are shown in Table 1. The enzyme method is described below. The substrate is 2-aminobenzoyl-Ile-Nle-Phe(p-NO2)-Gln-ArgNH2. The positive control is MVT-101 (Miller, M. et al, Science, 246, 1149 (1989)] The assay conditions are as follows:
Assay buffer: 20 mM sodium phosphate, pH 6.4
• 20% glycerol • 1 mM EDTA • 1 mM DTT • 0.1% CHAPS
The above described substrate is dissolved in DMSO, then diluted 10 fold in assay buffer. Final substrate concentration in the assay is 80 μM.
HIV protease is diluted in the assay buffer to a final enzyme concentration of 12.3 nanomolar, based on a molecular weight of 10,780.
The final concentration of DMSO is 14% and the final concentration of glycerol is 18%. The test compound is dissolved in DMSO and diluted in DMSO to 10× the test concentration; 10 μL of the enzyme preparation is added, the materials mixed and then the mixture is incubated at ambient temperature for 15 minutes. The enzyme reaction is initiated by the addition of 40 μL of substrate. The increase in fluorescence is monitored at 4 time points (0, 8, 16 and 24 minutes) at ambient temperature. Each assay is carried out in duplicate wells.

HIV-1 = assay: CEM cell assay, HIV inhibition in acutely infected cells (MTT); format: cell-based; details: Human immunodeficiency virus 1, CCRF-CEM, 168 h; CEM cells acutely infected with HIV-1, 7 days; concentration reducing cytopathicity by 50%; read-out: Antiviral Activity in Cell Culture (EC50)
Experimental: as §1, with “A frozen culture of HIV-1 was diluted in culture medium to a concentration of 5×10^4 TCID50 per mL (TCID50=the dose of virus that infects 50% of cells in tissue culture), and a 20 μL volume of the virus sample (containing 1000 TCID50 of virus) was added to wells containing test compound and to wells containing only medium (infected control cells). Several wells received culture medium without virus (uninfected control cells).” left out, “In summary, the tissue culture plates contained the following experiments:” left out
Following the addition of virus, cells were incubated at 37° C. in a humidified, 5% CO2 atmosphere for 7 days. […] The absorbance at 590 nm was determined for each sample using a Molecular Devices microplate reader. Absorbance values for each set of wells is compared to assess viral control infection, uninfected control cell response as well as test compound by cytotoxicity and antiviral efficacy. […]

SMILES | Cell Toxicity (TD50) (CEM cells) | IC50 (HIV protease) [nM] | EC50 (HIV-1) [nM]
C[C@H](CS(C)(=O)=O)C(=O)N[C@@H](Cc1ccccc1)[C@H](O)CN1C[C@H]2CCCC[C@H]2C[C@H]1C(=O)NC(C)(C)C | 58,000 nM |  | 
C[C@@H](C(=O)N[C@@H](Cc1ccccc1)[C@H](O)CN1C[C@H]2CCCC[C@H]2C[C@H]1C(=O)NC(C)(C)C)C(C)(C)C(=O)O | 50,000 nM |  | 
COc1ccc(COC(=O)NC[C@@H](C)C(=O)N[C@@H](Cc2ccccc2)[C@H](O)CN2C[C@H]3CCCC[C@H]3C[C@H]2C(=O)NC(C)(C)C)cc1 | 2,000 nM |  | 
CC(C)(C)NC(=O)[C@@H]1C[C@@H]2CCCC[C@@H]2CN1C[C@@H](O)[C@H](Cc1ccccc1)NC(=O)C[C@H](NC(=O)c1ccc2ccccc2n1)C(N)=O | 5,000 nM |  | 
C[C@@H](C(=O)N[C@@H](Cc1ccccc1)[C@H](O)CN1C[C@H]2CCCC[C@H]2C[C@H]1C(=O)NC(C)(C)C)C(C)(C)C(N)=O | 59,000 nM | 9 | 98

From patent US7026333B1, “Retroviral protease inhibitors” (G. D. Searle & Co., priority 1999, dated 2006)
